# Tests used:
# Assay type in all cases: in vivo
# Polygonum convolvulus [1] = assay: Post-emergence herbicidal action against POLCO; conditions: 20 g/ha, visual assessment about 3 weeks after treatment
# Experimental: Seeds of monocotyledonous and dicotyledonous weed and crop plants are laid out in sandy loam soil in wood-fiber pots, covered with soil and cultivated in a greenhouse under good growth conditions. 2 to 3 weeks after sowing, the test plants are treated at the one-leaf stage. The compounds of the invention, formulated in the form of wettable powders (WP) or as emulsion concentrates (EC), are then sprayed onto the green parts of the plants in the form of an aqueous suspension or emulsion at a water application rate equivalent to 600 to 800 l/ha, with addition of 0.2% wetting agent. After the test plants have been left to stand in the greenhouse under optimal growth conditions for about 3 weeks, the action of the preparations is assessed visually in comparison to untreated controls (herbicidal action in percent (%): 100% activity=the plants have died, 0% activity=like control plants). […] The tables below illustrate, in an illustrative manner, the post-emergence herbicidal action of the compounds of the invention, the herbicidal activity being stated in percent.
# Alopecurus myosuroides [2] = assay: Pre-emergence herbicidal action against ALOMY; conditions: for Pre-emergence action against ALOMY: visual score after 3 weeks vs untreated controls
# Procedure, shortened: (§1)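 Visual rating at 3 weeks vs untreated pots; 0–100% scale, 100% = plants died. Treatment: aqueous WP/EC spray onto covering soil, 600–800 l/ha, 0.2% wetter, seeds in sandy loam.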
# Amaranthus retroflexus [3] = assay: Pre-emergence herbicidal action against AMARE; conditions: visual score after 3 weeks vs untreated controls
# Procedure, shortened: as §1
# Amaranthus retroflexus [4] = assay: Post-emergence herbicidal action against AMARE; conditions: visual assessment about 3 weeks after treatment
# Procedure, shortened: (§2)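 Greenhouse pot plants in sandy loam were sprayed at the one-leaf stage, 2 to 3 weeks after sowing, with WP or EC formulations as aqueous suspension or emulsion (600 to 800 l/ha water, 0.2% wetting agent). About 3 weeks later, damage was scored visually against untreated controls as % action (100% = dead, 0% = like control).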
# Viola tricolor [5] = assay: Post-emergence herbicidal action against VIOTR
# Procedure, shortened: as §2
# Abutilon theophrasti [6] = assay: Pre-emergence herbicidal action against ABUTH; conditions: for Pre-emergence action against ABUTH: visual score after 3 weeks vs untreated controls
# Procedure, shortened: as §1
# Echinochloa crus-galli [7] = assay: Post-emergence herbicidal action against ECHCG; conditions: visual assessment about 3 weeks after treatment
# Procedure, shortened: as §2
# Avena fatua [8] = assay: Post-emergence herbicidal action against AVEFA; conditions: for Post-emergence action against AVEFA in %: visual assessment about 3 weeks after treatment
# Procedure, shortened: as §2
# Digitaria sanguinalis [9] = assay: Post-emergence herbicidal action against DIGSA
# Procedure, shortened: as §2
# Viola tricolor [10] = assay: Pre-emergence herbicidal action against VIOTR
# Procedure, shortened: as §1
# Pharbitis purpurea [11] = assay: Pre-emergence herbicidal action against PHBPU; conditions: 80 g/ha; visual score after 3 weeks vs untreated controls
# Procedure, shortened: as §1
# Veronica persica [12] = assay: Pre-emergence herbicidal action against VERPE
# Procedure, shortened: as §1
# Setaria viridis [13] = assay: Pre-emergence herbicidal action against SETVI
# Procedure, shortened: as §1
# Digitaria sanguinalis [14] = assay: Pre-emergence herbicidal action against DIGSA
# Procedure, shortened: as §1
# Matricaria inodora [15] = assay: Post-emergence herbicidal action against MATIN; conditions: for Post-emergence action against MATIN in %: visual assessment about 3 weeks after treatment
# Procedure, shortened: as §2
# Echinochloa crus-galli [16] = assay: Pre-emergence herbicidal action against ECHCG; conditions: for Pre-emergence action against ECHCG: visual score after 3 weeks vs untreated controls
# Procedure, shortened: as §1
# Alopecurus myosuroides [17] = assay: Post-emergence herbicidal action against ALOMY
# Procedure, shortened: as §2
# Setaria viridis [18] = assay: Post-emergence herbicidal action against SETVI; conditions: for Post-emergence action against SETVI in %: visual assessment about 3 weeks after treatment
# Procedure, shortened: as §2
# Matricaria inodora [19] = assay: Pre-emergence herbicidal action against MATIN; conditions: for Pre-emergence action against MATIN: visual score after 3 weeks vs untreated controls
# Procedure, shortened: as §1
# Veronica persica [20] = assay: Post-emergence herbicidal action against VERPE; conditions: visual assessment about 3 weeks after treatment
# Procedure, shortened: as §2
# Avena fatua [21] = assay: Pre-emergence herbicidal action against AVEFA; conditions: for Pre-emergence action against AVEFA: visual score after 3 weeks vs untreated controls
# Procedure, shortened: as §1
# Pharbitis purpurea [22] = assay: Post-emergence herbicidal action against PHBPU
# Procedure, shortened: as §2
# Polygonum convolvulus [23] = assay: Pre-emergence herbicidal action against POLCO; conditions: 80 g/ha
# Procedure, shortened: as §1
# Lolium rigidum = assay: Pre-emergence herbicidal action against LOLRI; conditions: 80 g/ha
# Procedure, shortened: as §1
# Abutilon theophrasti [24] = assay: Post-emergence herbicidal action against ABUTH
# Procedure, shortened: as §2
# [25] = comparative experiment, pre-emergence, 20 g a.i./ha
# [26] = comparative experiment, 5 g a.i./ha
smiles,measurement,setting,value
CCN(C(=O)c1c(C(F)(F)F)ccc(C(=O)Nc2nnnn2CC)c1C)C1CC1 [Example 2-32],Post-emergence action against POLCO in %,Polygonum convolvulus [1],80%
same,Pre-emergence action against ALOMY,Alopecurus myosuroides [2]; 80 g/ha,90%
same,Pre-emergence action against AMARE,Amaranthus retroflexus [3]; 20 g/ha,100%
same,Pre-emergence action against AMARE,Amaranthus retroflexus [3]; 80 g/ha,100%
same,Post-emergence action against AMARE in %,Amaranthus retroflexus [4]; 5 g/ha,100%
same,Post-emergence action against AMARE in %,Amaranthus retroflexus [4]; 20 g/ha,100%
same,Post-emergence action against VIOTR in %,Viola tricolor [5]; 5 g/ha,80%
same,Post-emergence action against VIOTR in %,Viola tricolor [5]; 20 g/ha,90%
same,Pre-emergence action against ABUTH,Abutilon theophrasti [6]; 20 g/ha,100%
same,Pre-emergence action against ABUTH,Abutilon theophrasti [6]; 80 g/ha,100%
same,Post-emergence action against ECHCG in %,Echinochloa crus-galli [7]; 5 g/ha,90%
same,Post-emergence action against ECHCG in %,Echinochloa crus-galli [7]; 20 g/ha,90%
same,Post-emergence action against AVEFA in %,Avena fatua [8]; 20 g/ha,80%
same,Post-emergence action against DIGSA in %,Digitaria sanguinalis [9]; 5 g/ha,90%
same,Post-emergence action against DIGSA in %,Digitaria sanguinalis [9]; 20 g/ha,90%
same,Pre-emergence action against VIOTR,Viola tricolor [10]; 20 g/ha,90%
same,Pre-emergence action against VIOTR,Viola tricolor [10]; 80 g/ha,100%
same,Pre-emergence action against PHBPU,Pharbitis purpurea [11],80%
same,Pre-emergence action against VERPE,Veronica persica [12]; 20 g/ha,90%
same,Pre-emergence action against VERPE,Veronica persica [12]; 80 g/ha,90%
same,Pre-emergence action against SETVI,Setaria viridis [13]; 80 g/ha,100%
same,Pre-emergence action against DIGSA,Digitaria sanguinalis [14]; 20 g/ha,100%
same,Pre-emergence action against DIGSA,Digitaria sanguinalis [14]; 80 g/ha,100%
same,Post-emergence action against MATIN in %,Matricaria inodora [15]; 5 g/ha,80%
same,Post-emergence action against MATIN in %,Matricaria inodora [15]; 20 g/ha,90%
same,Pre-emergence action against ECHCG,Echinochloa crus-galli [16]; 80 g/ha,90%
same,Post-emergence action against ALOMY,Alopecurus myosuroides [17]; 5 g/ha,80%
same,Post-emergence action against ALOMY,Alopecurus myosuroides [17]; 20 g/ha,100%
same,Post-emergence action against SETVI in %,Setaria viridis [18]; 20 g/ha,90%
same,Pre-emergence action against MATIN,Matricaria inodora [19]; 20 g/ha,80%
same,Pre-emergence action against MATIN,Matricaria inodora [19]; 80 g/ha,100%
CCn1nnnc1NC(=O)c1ccc(C(F)F)c(C(=O)N(C)C)c1Cl [Example 2-154],Post-emergence action against POLCO in %,Polygonum convolvulus [1],90%
same,Pre-emergence action against ALOMY,Alopecurus myosuroides [2]; 20 g/ha,80%
same,Pre-emergence action against ALOMY,Alopecurus myosuroides [2]; 80 g/ha,100%
same,Herbicidal action against ALOMY,Alopecurus myosuroides [2]; [25],80
same,Pre-emergence action against AMARE,Amaranthus retroflexus [3]; 20 g/ha,100%
same,Pre-emergence action against AMARE,Amaranthus retroflexus [3]; 80 g/ha,100%
same,Post-emergence action against VERPE in %,Veronica persica [20]; 5 g/ha,80%
same,Post-emergence action against VERPE in %,Veronica persica [20]; 20 g/ha,90%
same,Post-emergence action against AMARE in %,Amaranthus retroflexus [4]; 5 g/ha,90%
same,Post-emergence action against AMARE in %,Amaranthus retroflexus [4]; 20 g/ha,100%
same,Post-emergence action against VIOTR in %,Viola tricolor [5]; 5 g/ha,90%
same,Post-emergence action against VIOTR in %,Viola tricolor [5]; 20 g/ha,100%
same,Herbicidal action against VIOTR,Viola tricolor [5]; [26],80
same,Pre-emergence action against ABUTH,Abutilon theophrasti [6]; 20 g/ha,100%
same,Pre-emergence action against ABUTH,Abutilon theophrasti [6]; 80 g/ha,100%
same,Herbicidal action against ABUTH,Abutilon theophrasti [6]; [25],100
same,Pre-emergence action against AVEFA,Avena fatua [21]; 20 g/ha,80%
same,Pre-emergence action against AVEFA,Avena fatua [21]; 80 g/ha,100%
same,Herbicidal action against AVEFA,Avena fatua [21]; [25],80
same,Post-emergence action against PHBPU in %,"Pharbitis purpurea [22]; 20 g/ha, visual assessment about 3 weeks after treatment",80%
same,Herbicidal action against PHBPU,Pharbitis purpurea [22]; [26],70
same,Post-emergence action against ECHCG in %,Echinochloa crus-galli [7]; 5 g/ha,80%
same,Post-emergence action against ECHCG in %,Echinochloa crus-galli [7]; 20 g/ha,90%
same,Post-emergence action against AVEFA in %,Avena fatua [8]; 5 g/ha,80%
same,Post-emergence action against AVEFA in %,Avena fatua [8]; 20 g/ha,100%
same,Herbicidal action against AVEFA,Avena fatua [8]; [26],80
same,Pre-emergence action against POLCO,Polygonum convolvulus [23],80%
same,Post-emergence action against DIGSA in %,Digitaria sanguinalis [9]; 5 g/ha,90%
same,Post-emergence action against DIGSA in %,Digitaria sanguinalis [9]; 20 g/ha,90%
same,Pre-emergence action against LOLRI,Lolium rigidum,80%
same,Pre-emergence action against VIOTR,Viola tricolor [10]; 20 g/ha,90%
same,Pre-emergence action against VIOTR,Viola tricolor [10]; 80 g/ha,100%
same,Pre-emergence action against PHBPU,Pharbitis purpurea [11],80%
same,Pre-emergence action against VERPE,Veronica persica [12]; 80 g/ha,90%
same,Pre-emergence action against SETVI,Setaria viridis [13]; 20 g/ha,100%
same,Pre-emergence action against SETVI,Setaria viridis [13]; 80 g/ha,100%
same,Herbicidal action against SETVI,"Setaria viridis [13]; comparative experiment, 20 g a.i./ha",100
same,Pre-emergence action against DIGSA,Digitaria sanguinalis [14]; 20 g/ha,100%
same,Pre-emergence action against DIGSA,Digitaria sanguinalis [14]; 80 g/ha,100%
same,Post-emergence action against MATIN in %,Matricaria inodora [15]; 5 g/ha,80%
same,Post-emergence action against MATIN in %,Matricaria inodora [15]; 20 g/ha,90%
same,Herbicidal action against MATIN,Matricaria inodora [15]; [26],80
same,Pre-emergence action against ECHCG,Echinochloa crus-galli [16]; 20 g/ha,80%
same,Pre-emergence action against ECHCG,Echinochloa crus-galli [16]; 80 g/ha,100%
same,Herbicidal action against ECHCG,Echinochloa crus-galli [16]; [25],80
same,Post-emergence action against ALOMY,Alopecurus myosuroides [17]; 5 g/ha,90%
same,Post-emergence action against ALOMY,Alopecurus myosuroides [17]; 20 g/ha,90%
same,Herbicidal action against ALOMY,Alopecurus myosuroides [17]; [26],90
same,Post-emergence action against SETVI in %,Setaria viridis [18]; 5 g/ha,90%
same,Post-emergence action against SETVI in %,Setaria viridis [18]; 20 g/ha,100%
same,Herbicidal action against SETVI,Setaria viridis [18]; [26],90
same,Pre-emergence action against MATIN,Matricaria inodora [19]; 20 g/ha,90%
same,Pre-emergence action against MATIN,Matricaria inodora [19]; 80 g/ha,100%
same,Herbicidal action against MATIN,Matricaria inodora [19]; [25],90
same,Post-emergence action against ABUTH,Abutilon theophrasti [24]; 5 g/ha,100%
same,Post-emergence action against ABUTH,Abutilon theophrasti [24]; 20 g/ha,100%
